Measurements as given in US20250145665A1, “MACROCYCLIC PEPTIDES USEFUL AS MODULATORS OF TNF ALPHA” (Bristol-Myers Squibb Company, priority 2023, published 2025).
Starred links: 1 amine or outer side, 2 acyl side, 3 side chain; linkers in the order of their positions; H or OH if unused. Positions of bridges follow the written chain, without caps; N, C: chain ends. Non-standard residues stand in square brackets, D forms with d. Residues, ends and D or L forms follow the SMILES beside them. Bip(4'-COOH) = N[C@@H](Cc1ccc(-c2ccc(C(=O)O)cc2)cc1)C(=O)O; Bip(4'-NHAc) = CC(=O)Nc1ccc(-c2ccc(C[C@H](N)C(=O)O)cc2)cc1; Phe(4-(4-pyridyl)) = N[C@@H](Cc1ccc(-c2ccncc2)cc1)C(=O)O; Phe(4-(3-Py)) = N[C@@H](Cc1ccc(-c2cccnc2)cc1)C(=O)O; Pro(trans-4-Ph) = O=C(O)[C@@H]1C[C@@H](c2ccccc2)CN1; Pro(cis-4-Ph) = O=C(O)[C@@H]1C[C@H](c2ccccc2)CN1; Ala(morpholin-4-yl) = N[C@@H](CN1CCOCC1)C(=O)O; Asp(3,3-Me2) = CC(C)(C(=O)O)[C@H](N)C(=O)O; Bip = N[C@@H](Cc1ccc(-c2ccccc2)cc1)C(=O)O; X82 = C[C@@]1(C(=O)[*:2])CCN1[*:1]; d(αMeP) = C[C@]1(C(=O)O)CCCN1; Sar = CNCC(=O)O

target: TNFα (Homo sapiens, UniProt P01375); experiment: TNF-Induced HEK-Blue Assay; type: cell-based; settings: HEK-Blue-CD40L cells, NF-kB-driven secreted alkaline phosphatase reporter; TNFα 0.5 ng/ml; 18 h; read-out: TNF induced HEK-Blue assay IC50 value
Sequence (P01375 77-233 limits assumed): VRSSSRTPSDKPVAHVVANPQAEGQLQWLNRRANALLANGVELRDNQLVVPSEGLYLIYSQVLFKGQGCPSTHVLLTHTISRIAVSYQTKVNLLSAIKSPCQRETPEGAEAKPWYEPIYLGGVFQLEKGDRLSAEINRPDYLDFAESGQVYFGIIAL

IC50	Compound
50 to 200 nM	CC(=O)Nc1ccc(-c2ccc(C[C@@H]3NC(=O)[C@H](Cc4ccc(-c5ccccc5)cc4)NC(=O)[C@H](CN4CCOCC4)NC(=O)CSC[C@@H](C(=O)NCC(N)=O)NC(=O)[C@H](C(C)C)NC(=O)[C@H](CCCNC(=N)N)NC(=O)[C@H](C(C)C)NC(=O)[C@@H]4CCCN4C(=O)[C@H](C(C)C)NC(=O)[C@H](CCCNC(=N)N)NC(=O)[C@H](CC(=O)O)NC(=O)[C@@H]4CCCN4C(=O)CN(C)C3=O)cc2)cc1 [Example 89] ({CH2CO}-[Ala(morpholin-4-yl)][Bip][Bip(4'-NHAc)][Sar]PDRVPVRVCG-NH2; thioether N-13)
50 to 200 nM	CC(C)[C@@H]1NC(=O)[C@H](CCCNC(=N)N)NC(=O)[C@H](C(C)C)NC(=O)[C@@H]2CCCN2C(=O)[C@H](C(C)C)NC(=O)[C@H](CCCNC(=N)N)NC(=O)[C@H](CC(=O)O)NC(=O)[C@@H]2CCCN2C(=O)CN(C)C(=O)[C@H](Cc2ccc(-c3ccc(C(=O)O)cc3)cc2)NC(=O)[C@H](Cc2ccc(-c3ccccc3)cc2)NC(=O)[C@H](CN2CCOCC2)NC(=O)CSC[C@@H](C(=O)NCC(N)=O)NC1=O [Example 90] ({CH2CO}-[Ala(morpholin-4-yl)][Bip][Bip(4'-COOH)][Sar]PDRVPVRVCG-NH2; thioether N-13)
200 to 2000 nM	CC(C)[C@@H]1NC(=O)[C@H](CCCNC(=N)N)NC(=O)[C@H](C(C)C)NC(=O)[C@@H]2CCCN2C(=O)[C@H](C(C)C)NC(=O)[C@H](CCCNC(=N)N)NC(=O)[C@H](CC(=O)O)NC(=O)[C@@H]2CCCN2C(=O)CN(C)C(=O)[C@H](Cc2ccc(-c3ccncc3)cc2)NC(=O)[C@H](Cc2ccc(-c3ccccc3)cc2)NC(=O)[C@H](CN2CCOCC2)NC(=O)CSC[C@@H](C(=O)NCC(N)=O)NC1=O [Example 91] ({CH2CO}-[Ala(morpholin-4-yl)][Bip][Phe(4-(4-pyridyl))][Sar]PDRVPVRVCG-NH2; thioether N-13)
200 to 2000 nM	CC(C)[C@@H]1NC(=O)[C@H](CCCNC(=N)N)NC(=O)[C@H](C(C)C)NC(=O)[C@@H]2CCCN2C(=O)[C@H](C(C)C)NC(=O)[C@H](CCCNC(=N)N)NC(=O)[C@H](CC(=O)O)NC(=O)[C@@H]2CCCN2C(=O)CN(C)C(=O)[C@H](Cc2ccc(-c3cccnc3)cc2)NC(=O)[C@H](Cc2ccc(-c3ccccc3)cc2)NC(=O)[C@H](CN2CCOCC2)NC(=O)CSC[C@@H](C(=O)NCC(N)=O)NC1=O [Example 92] ({CH2CO}-[Ala(morpholin-4-yl)][Bip][Phe(4-(3-Py))][Sar]PDRVPVRVCG-NH2; thioether N-13)
50 to 200 nM	CC(C)C[C@@H]1NC(=O)[C@H](Cc2ccc(O)cc2)NC(=O)[C@H](C(C)C)NC(=O)[C@]2(C)CCN2C(=O)[C@H](C(C)C)NC(=O)[C@H](CCCNC(=N)N)NC(=O)[C@H](CC(=O)O)NC(=O)[C@H](Cc2ccc(O)cc2)NC(=O)CN(C)C(=O)[C@H](Cc2ccc(-c3ccccc3)cc2)NC(=O)[C@H](Cc2ccc(-c3ccccc3)cc2)NC(=O)[C@H](CN2CCOCC2)NC(=O)CSC[C@@H](C(=O)NCC(N)=O)NC1=O [Example 93] ({CH2CO}-[Ala(morpholin-4-yl)][Bip][Bip][Sar]YDRV[X82]VYLCG-NH2; thioether N-13)
50 to 200 nM	CC(C)C[C@@H]1NC(=O)[C@H](Cc2ccc(O)cc2)NC(=O)[C@H](C(C)C)NC(=O)[C@@H]2CCCN2C(=O)[C@H](C(C)C)NC(=O)[C@H](CCCNC(=N)N)NC(=O)[C@H](CC(=O)O)NC(=O)[C@@H]2C[C@H](c3ccccc3)CN2C(=O)CN(C)C(=O)[C@H](Cc2ccc(-c3ccccc3)cc2)NC(=O)[C@H](Cc2ccc(-c3ccccc3)cc2)NC(=O)[C@H](CN2CCOCC2)NC(=O)CSC[C@@H](C(=O)NCC(N)=O)NC1=O [Example 94] ({CH2CO}-[Ala(morpholin-4-yl)][Bip][Bip][Sar][Pro(cis-4-Ph)]DRVPVYLCG-NH2; thioether N-13)
200 to 2000 nM	CC(C)C[C@@H]1NC(=O)[C@H](Cc2ccc(O)cc2)NC(=O)[C@H](C(C)C)NC(=O)[C@@H]2CCCN2C(=O)[C@H](C(C)C)NC(=O)[C@H](CCCNC(=N)N)NC(=O)[C@H](CC(=O)O)NC(=O)[C@@H]2C[C@@H](c3ccccc3)CN2C(=O)CN(C)C(=O)[C@H](Cc2ccc(-c3ccccc3)cc2)NC(=O)[C@H](Cc2ccc(-c3ccccc3)cc2)NC(=O)[C@H](CN2CCOCC2)NC(=O)CSC[C@@H](C(=O)NCC(N)=O)NC1=O [Example 95] ({CH2CO}-[Ala(morpholin-4-yl)][Bip][Bip][Sar][Pro(trans-4-Ph)]DRVPVYLCG-NH2; thioether N-13)
50 to 200 nM	CC(C)C[C@@H]1NC(=O)[C@H](CCCNC(=N)N)NC(=O)[C@H](C(C)C)NC(=O)[C@@H]2CCCN2C(=O)[C@H](C(C)C)NC(=O)[C@H](CCCNC(=N)N)NC(=O)[C@H](CC(=O)O)NC(=O)[C@@H]2C[C@H](c3ccccc3)CN2C(=O)CN(C)C(=O)[C@H](Cc2ccc(-c3ccccc3)cc2)NC(=O)[C@H](Cc2ccc(-c3ccccc3)cc2)NC(=O)[C@H](CN2CCOCC2)NC(=O)CSC[C@@H](C(=O)NCC(N)=O)NC1=O [Example 96] ({CH2CO}-[Ala(morpholin-4-yl)][Bip][Bip][Sar][Pro(cis-4-Ph)]DRVPVRLCG-NH2; thioether N-13)
50 to 200 nM	CC(C)C[C@@H]1NC(=O)[C@H](CCCNC(=N)N)NC(=O)[C@H](C(C)C)NC(=O)[C@@H]2CCCN2C(=O)[C@H](C(C)C)NC(=O)[C@H](CCCNC(=N)N)NC(=O)[C@H](CC(=O)O)NC(=O)[C@@H]2C[C@@H](c3ccccc3)CN2C(=O)CN(C)C(=O)[C@H](Cc2ccc(-c3ccccc3)cc2)NC(=O)[C@H](Cc2ccc(-c3ccccc3)cc2)NC(=O)[C@H](CN2CCOCC2)NC(=O)CSC[C@@H](C(=O)NCC(N)=O)NC1=O [Example 97] ({CH2CO}-[Ala(morpholin-4-yl)][Bip][Bip][Sar][Pro(trans-4-Ph)]DRVPVRLCG-NH2; thioether N-13)
50 to 200 nM	CC(C)C[C@@H]1NC(=O)[C@H](Cc2ccc(O)cc2)NC(=O)[C@H](C(C)C)NC(=O)[C@@H]2CCCN2C(=O)[C@H](C(C)C)NC(=O)[C@@H](CCCNC(=N)N)NC(=O)[C@H](CC(=O)O)NC(=O)[C@@H]2C[C@H](c3ccccc3)CN2C(=O)CN(C)C(=O)[C@H](Cc2ccc(-c3ccccc3)cc2)NC(=O)[C@H](Cc2ccc(-c3ccccc3)cc2)NC(=O)[C@H](CN2CCOCC2)NC(=O)CSC[C@@H](C(=O)NCC(N)=O)NC1=O [Example 98] ({CH2CO}-[Ala(morpholin-4-yl)][Bip][Bip][Sar][Pro(cis-4-Ph)]D[dR]VPVYLCG-NH2; thioether N-13)
200 to 2000 nM	CC(C)C[C@@H]1NC(=O)[C@H](Cc2ccc(O)cc2)NC(=O)[C@H](C(C)C)NC(=O)[C@@H]2CCCN2C(=O)[C@H](C(C)C)NC(=O)[C@@H](CCCNC(=N)N)NC(=O)[C@H](CC(=O)O)NC(=O)[C@@H]2C[C@@H](c3ccccc3)CN2C(=O)CN(C)C(=O)[C@H](Cc2ccc(-c3ccccc3)cc2)NC(=O)[C@H](Cc2ccc(-c3ccccc3)cc2)NC(=O)[C@H](CN2CCOCC2)NC(=O)CSC[C@@H](C(=O)NCC(N)=O)NC1=O [Example 99] ({CH2CO}-[Ala(morpholin-4-yl)][Bip][Bip][Sar][Pro(trans-4-Ph)]D[dR]VPVYLCG-NH2; thioether N-13)
200 to 2000 nM	CC(C)C[C@@H]1NC(=O)[C@H](Cc2ccc(O)cc2)NC(=O)[C@H](C(C)C)NC(=O)[C@@H]2CCCN2C(=O)[C@H](C(C)C)NC(=O)[C@H](CCCNC(=N)N)NC(=O)[C@H](C(C)(C)C(=O)O)NC(=O)[C@H](Cc2ccc(O)cc2)NC(=O)CN(C)C(=O)[C@H](Cc2ccc(-c3ccccc3)cc2)NC(=O)[C@H](Cc2ccc(-c3ccccc3)cc2)NC(=O)[C@H](CN2CCOCC2)NC(=O)CSC[C@@H](C(=O)NCC(N)=O)NC1=O [Example 100] ({CH2CO}-[Ala(morpholin-4-yl)][Bip][Bip][Sar]Y[Asp(3,3-Me2)]RVPVYLCG-NH2; thioether N-13)
50 to 200 nM	CC(C)C[C@@H]1NC(=O)[C@H](Cc2ccc(O)cc2)NC(=O)[C@H](C(C)C)NC(=O)[C@@H]2CCCN2C(=O)[C@H](C(C)C)NC(=O)[C@H](CCCNC(=N)N)NC(=O)[C@H](CC(=O)O)NC(=O)[C@@]2(C)CCCN2C(=O)CN(C)C(=O)[C@H](Cc2ccc(-c3ccccc3)cc2)NC(=O)[C@H](Cc2ccc(-c3ccccc3)cc2)NC(=O)[C@H](CN2CCOCC2)NC(=O)CSC[C@@H](C(=O)NCC(N)=O)NC1=O [Example 101] ({CH2CO}-[Ala(morpholin-4-yl)][Bip][Bip][Sar][d(αMeP)]DRVPVYLCG-NH2; thioether N-13)
200 to 2000 nM	CC(C)C[C@@H]1NC(=O)[C@H](Cc2ccc(O)cc2)NC(=O)[C@H](C(C)C)NC(=O)[C@@H]2CCCN2C(=O)[C@H](C(C)C)NC(=O)[C@@H](CCCNC(=N)N)NC(=O)[C@H](CC(=O)O)NC(=O)[C@@]2(C)CCCN2C(=O)CN(C)C(=O)[C@H](Cc2ccc(-c3ccccc3)cc2)NC(=O)[C@H](Cc2ccc(-c3ccccc3)cc2)NC(=O)[C@H](CN2CCOCC2)NC(=O)CSC[C@@H](C(=O)NCC(N)=O)NC1=O [Example 102] ({CH2CO}-[Ala(morpholin-4-yl)][Bip][Bip][Sar][d(αMeP)]D[dR]VPVYLCG-NH2; thioether N-13)
200 to 2000 nM	CC(C)C[C@@H]1NC(=O)[C@H](CCCNC(=N)N)NC(=O)[C@H](C(C)C)NC(=O)[C@@H]2CCCN2C(=O)[C@H](C(C)C)NC(=O)[C@@H](CCCNC(=N)N)NC(=O)[C@H](CC(=O)O)NC(=O)[C@@]2(C)CCCN2C(=O)CN(C)C(=O)[C@H](Cc2ccc(-c3ccccc3)cc2)NC(=O)[C@H](Cc2ccc(-c3ccccc3)cc2)NC(=O)[C@H](CN2CCOCC2)NC(=O)CSC[C@@H](C(=O)NCC(N)=O)NC1=O [Example 103] ({CH2CO}-[Ala(morpholin-4-yl)][Bip][Bip][Sar][d(αMeP)]D[dR]VPVRLCG-NH2; thioether N-13)
200 to 2000 nM	CC(C)C[C@@H]1NC(=O)[C@H](CCCNC(=N)N)NC(=O)[C@H](Cc2ccccc2)NC(=O)[C@@H]2CCCN2C(=O)[C@H](C(C)C)NC(=O)[C@@H](CCCNC(=N)N)NC(=O)[C@H](CC(=O)O)NC(=O)[C@@H]2CCCN2C(=O)CN(C)C(=O)[C@H](Cc2ccc(-c3ccccc3)cc2)NC(=O)[C@H](Cc2ccc(-c3ccccc3)cc2)NC(=O)[C@H](CN2CCOCC2)NC(=O)CSC[C@@H](C(=O)NCC(N)=O)NC1=O [Example 104] ({CH2CO}-[Ala(morpholin-4-yl)][Bip][Bip][Sar]PD[dR]VPFRLCG-NH2; thioether N-13)
